Measured values: PubChem BioAssay (NCI)
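96-well plates; 48 h exposure; 5 concentrations. Endpoints by linear interpolation between flanking doses. Not reached: highest tested concentration assigned. GI50 is the concentration that inhibits growth by half. TGI: concentration producing complete growth inhibition.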

How the values were obtained:
Test in all cases: DTP human tumour cell line panel, 48 h
SN12C renal = tested on: SN12C renal
OVCAR-5 ovarian = tested on: OVCAR-5 ovarian
SK-MEL-28 melanoma = tested on: SK-MEL-28 melanoma
ACHN renal = tested on: ACHN renal
PC-3 prostate = tested on: PC-3 prostate
OVCAR-8 ovarian = tested on: OVCAR-8 ovarian
NCI-H460 lung = tested on: NCI-H460 lung
A549 NSCLC = tested on: A549 NSCLC
786-0 renal = tested on: 786-0 renal
SK-MEL-5 melanoma = tested on: SK-MEL-5 melanoma
M14 melanoma = tested on: M14 melanoma
CCRF-CEM leukemia = tested on: CCRF-CEM leukemia
SF-539 CNS = tested on: SF-539 CNS
MCF7 breast = tested on: MCF7 breast
HL-60(TB) leukemia = tested on: HL-60(TB) leukemia
UO-31 renal = tested on: UO-31 renal
SK-OV-3 ovarian = tested on: SK-OV-3 ovarian
SNB-19 CNS = tested on: SNB-19 CNS
K-562 leukemia = tested on: K-562 leukemia
LOX IMVI melanoma = tested on: LOX IMVI melanoma
NCI/ADR-RES ovarian = tested on: NCI/ADR-RES ovarian
RPMI-8226 leukemia = tested on: RPMI-8226 leukemia
MOLT-4 leukemia = tested on: MOLT-4 leukemia
UACC-62 melanoma = tested on: UACC-62 melanoma
CAKI-1 renal = tested on: CAKI-1 renal
SR leukemia = tested on: SR leukemia
SNB-75 CNS = tested on: SNB-75 CNS
NCI-H226 lung = tested on: NCI-H226 lung
BT-549 breast = tested on: BT-549 breast
IGROV1 ovarian = tested on: IGROV1 ovarian
TK-10 renal = tested on: TK-10 renal
HS 578T breast = tested on: HS 578T breast
EKVX NSCLC = tested on: EKVX NSCLC
U251 CNS = tested on: U251 CNS
HT29 colon = tested on: HT29 colon
HCC-2998 colon = tested on: HCC-2998 colon
NCI-H23 lung = tested on: NCI-H23 lung
OVCAR-4 ovarian = tested on: OVCAR-4 ovarian
SF-268 CNS = tested on: SF-268 CNS
A498 renal = tested on: A498 renal
HCT-15 colon = tested on: HCT-15 colon
SW-620 colon = tested on: SW-620 colon
OVCAR-3 ovarian = tested on: OVCAR-3 ovarian
UACC-257 melanoma = tested on: UACC-257 melanoma
SK-MEL-2 melanoma = tested on: SK-MEL-2 melanoma
COLO 205 colon = tested on: COLO 205 colon
MALME-3M melanoma = tested on: MALME-3M melanoma
MDA-MB-435 = tested on: MDA-MB-435
HOP-92 NSCLC = tested on: HOP-92 NSCLC
HCT-116 colon = tested on: HCT-116 colon
T-47D breast = tested on: T-47D breast
NCI-H522 lung = tested on: NCI-H522 lung
SF-295 CNS = tested on: SF-295 CNS
MDA-MB-231 breast = tested on: MDA-MB-231 breast
RXF 393 renal = tested on: RXF 393 renal
HOP-62 NSCLC = tested on: HOP-62 NSCLC
KM12 colon = tested on: KM12 colon
DU-145 prostate = tested on: DU-145 prostate

In the case of `O=C(NCCN1CCOCC1)c1ccc(I)cc1`, the TGI (SN12C renal) was > 100000 nM, the TGI (OVCAR-5 ovarian) was > 100000 nM and the TGI (SK-MEL-28 melanoma) was > 100000 nM. The TGI (ACHN renal) was > 100000 nM, the TGI (PC-3 prostate) was > 100000 nM and the TGI (OVCAR-8 ovarian) was > 100000 nM. The TGI (NCI-H460 lung) was > 100000 nM, the TGI (A549 NSCLC) was > 100000 nM and the TGI (786-0 renal) was > 100000 nM. For the same compound, the TGI (SK-MEL-5 melanoma) was > 100000 nM, the TGI (M14 melanoma) was > 100000 nM and the TGI (CCRF-CEM leukemia) was > 100000 nM. The TGI (SF-539 CNS) was > 100000 nM, the TGI (MCF7 breast) was > 100000 nM and the TGI (HL-60(TB) leukemia) was > 100000 nM. The TGI (UO-31 renal) was > 100000 nM, the TGI (SK-OV-3 ovarian) was > 100000 nM and the TGI (SNB-19 CNS) was > 100000 nM. For the same compound, the TGI (K-562 leukemia) was > 100000 nM, the TGI (LOX IMVI melanoma) was > 100000 nM and the TGI (NCI/ADR-RES ovarian) was > 100000 nM. For the same compound, the TGI (RPMI-8226 leukemia) was > 100000 nM, the TGI (MOLT-4 leukemia) was > 100000 nM and the TGI (UACC-62 melanoma) was > 100000 nM. For the same compound, the TGI (CAKI-1 renal) was > 100000 nM, the TGI (SR leukemia) was > 100000 nM and the TGI (SNB-75 CNS) was > 100000 nM. For the same compound, the TGI (NCI-H226 lung) was > 100000 nM, the TGI (BT-549 breast) was > 100000 nM and the TGI (IGROV1 ovarian) was > 100000 nM. The TGI (TK-10 renal) was > 100000 nM, the TGI (HS 578T breast) was > 100000 nM and the TGI (EKVX NSCLC) was > 100000 nM. The TGI (U251 CNS) was > 100000 nM, the TGI (HT29 colon) was > 100000 nM and the TGI (HCC-2998 colon) was > 100000 nM. For the same compound, the TGI (NCI-H23 lung) was > 100000 nM, the TGI (OVCAR-4 ovarian) was > 100000 nM and the TGI (SF-268 CNS) was > 100000 nM. For the same compound, the TGI (A498 renal) was > 100000 nM, the TGI (HCT-15 colon) was > 100000 nM and the TGI (SW-620 colon) was > 100000 nM. For the same compound, the TGI (OVCAR-3 ovarian) was > 100000 nM.
With `Cc1cn2c(/C=N/N=C(N)N)c(-c3ccc(Cl)c([N+](=O)[O-])c3)nc2s1` the TGI (OVCAR-5 ovarian) was 2410 nM, the TGI (UACC-257 melanoma) was > 100000 nM and the TGI (SK-MEL-28 melanoma) was 3050 nM. For the same compound, the TGI (OVCAR-8 ovarian) was > 100000 nM, the TGI (SK-MEL-2 melanoma) was 1600 nM and the TGI (SF-539 CNS) was 3110 nM. The TGI (UO-31 renal) was 3400 nM, the TGI (SK-OV-3 ovarian) was 3150 nM and the TGI (NCI/ADR-RES ovarian) was > 100000 nM. For the same compound, the TGI (CAKI-1 renal) was > 100000 nM, the TGI (SNB-75 CNS) was 2370 nM and the TGI (HS 578T breast) was > 100000 nM. The TGI (EKVX NSCLC) was 2100 nM, the TGI (HT29 colon) was 2720 nM and the TGI (COLO 205 colon) was 1880 nM. The TGI (SW-620 colon) was > 100000 nM.
Compound `NCCCOc1cc(Cl)ccc1NC(=O)c1cc2ccccc2cc1OCCCN` has a GI50 (SN12C renal) of 1580 nM, a TGI (SN12C renal) of 3230 nM and a GI50 (OVCAR-5 ovarian) of 1420 nM. It also gave a TGI (OVCAR-5 ovarian) of 3010 nM, a GI50 (UACC-257 melanoma) of 2020 nM and a TGI (UACC-257 melanoma) of 3690 nM. It also gave a GI50 (SK-MEL-28 melanoma) of 1810 nM, a TGI (SK-MEL-28 melanoma) of 3230 nM and a GI50 (ACHN renal) of 1480 nM. For the same compound, the TGI (ACHN renal) was 2880 nM, the GI50 (PC-3 prostate) was 1410 nM and the TGI (PC-3 prostate) was 2830 nM. The GI50 (OVCAR-8 ovarian) was 1840 nM, the TGI (OVCAR-8 ovarian) was 3590 nM and the GI50 (NCI-H460 lung) was 1680 nM. The TGI (NCI-H460 lung) was 3210 nM, the GI50 (MALME-3M melanoma) was 1650 nM and the TGI (MALME-3M melanoma) was 3590 nM. It also gave a GI50 (A549 NSCLC) of 1540 nM, a TGI (A549 NSCLC) of 3060 nM and a GI50 (786-0 renal) of 1620 nM. It also gave a TGI (786-0 renal) of 3080 nM, a GI50 (SK-MEL-5 melanoma) of 1470 nM and a TGI (SK-MEL-5 melanoma) of 2810 nM. It also gave a GI50 (MDA-MB-435) of 1800 nM, a TGI (MDA-MB-435) of 3590 nM and a GI50 (CCRF-CEM leukemia) of 469 nM. The TGI (CCRF-CEM leukemia) was 2540 nM, the GI50 (SK-MEL-2 melanoma) was 1580 nM and the TGI (SK-MEL-2 melanoma) was 3190 nM. For the same compound, the GI50 (SF-539 CNS) was 1500 nM, the TGI (SF-539 CNS) was 2950 nM and the GI50 (MCF7 breast) was 1620 nM. The TGI (MCF7 breast) was 3070 nM, the GI50 (HL-60(TB) leukemia) was 665 nM and the TGI (HL-60(TB) leukemia) was 2390 nM. It also gave a GI50 (UO-31 renal) of 1200 nM, a TGI (UO-31 renal) of 2650 nM and a GI50 (SK-OV-3 ovarian) of 1400 nM. For the same compound, the TGI (SK-OV-3 ovarian) was 2720 nM, the GI50 (HOP-92 NSCLC) was 1320 nM and the TGI (HOP-92 NSCLC) was 2850 nM. The GI50 (SNB-19 CNS) was 1620 nM, the TGI (SNB-19 CNS) was 3210 nM and the GI50 (HCT-116 colon) was 1370 nM. The TGI (HCT-116 colon) was 2800 nM, the GI50 (K-562 leukemia) was 1720 nM and the TGI (K-562 leukemia) was 4120 nM. The GI50 (T-47D breast) was 1510 nM, the TGI (T-47D breast) was 3200 nM and the GI50 (LOX IMVI melanoma) was 1200 nM. It also gave a TGI (LOX IMVI melanoma) of 2590 nM, a GI50 (NCI-H522 lung) of 575 nM and a TGI (NCI-H522 lung) of 2340 nM. The GI50 (NCI/ADR-RES ovarian) was 1970 nM, the TGI (NCI/ADR-RES ovarian) was 4250 nM and the GI50 (MOLT-4 leukemia) was 1510 nM. The TGI (MOLT-4 leukemia) was 3250 nM, the GI50 (SF-295 CNS) was 1660 nM and the TGI (SF-295 CNS) was 3420 nM. It also gave a GI50 (UACC-62 melanoma) of 1780 nM, a TGI (UACC-62 melanoma) of 3300 nM and a GI50 (CAKI-1 renal) of 1600 nM. For the same compound, the TGI (CAKI-1 renal) was 3640 nM, the GI50 (SR leukemia) was 1720 nM and the TGI (SR leukemia) was 4710 nM. For the same compound, the GI50 (MDA-MB-231 breast) was 1190 nM, the TGI (MDA-MB-231 breast) was 2690 nM and the GI50 (SNB-75 CNS) was 1230 nM. For the same compound, the TGI (SNB-75 CNS) was 2500 nM, the GI50 (NCI-H226 lung) was 1220 nM and the TGI (NCI-H226 lung) was 2620 nM. It also gave a GI50 (IGROV1 ovarian) of 678 nM, a TGI (IGROV1 ovarian) of 2280 nM and a GI50 (TK-10 renal) of 1730 nM. It also gave a TGI (TK-10 renal) of 3380 nM, a GI50 (HS 578T breast) of 1590 nM and a TGI (HS 578T breast) of 3570 nM. It also gave a GI50 (EKVX NSCLC) of 1690 nM, a TGI (EKVX NSCLC) of 3580 nM and a GI50 (RXF 393 renal) of 1240 nM. For the same compound, the TGI (RXF 393 renal) was 2540 nM, the GI50 (HOP-62 NSCLC) was 1260 nM and the TGI (HOP-62 NSCLC) was 2590 nM. It also gave a GI50 (KM12 colon) of 1480 nM, a TGI (KM12 colon) of 2910 nM and a GI50 (U251 CNS) of 1710 nM. The TGI (U251 CNS) was 3240 nM, the GI50 (HT29 colon) was 1620 nM and the TGI (HT29 colon) was 4160 nM. For the same compound, the GI50 (HCC-2998 colon) was 1390 nM, the TGI (HCC-2998 colon) was 2820 nM and the GI50 (NCI-H23 lung) was 1510 nM. The TGI (NCI-H23 lung) was 3030 nM, the GI50 (COLO 205 colon) was 1310 nM and the TGI (COLO 205 colon) was 2790 nM. For the same compound, the GI50 (OVCAR-4 ovarian) was 1510 nM, the TGI (OVCAR-4 ovarian) was 2910 nM and the GI50 (SF-268 CNS) was 1290 nM. For the same compound, the TGI (SF-268 CNS) was 2630 nM, the GI50 (A498 renal) was 1580 nM and the TGI (A498 renal) was 3080 nM. It also gave a GI50 (HCT-15 colon) of 1500 nM, a TGI (HCT-15 colon) of 3200 nM and a GI50 (SW-620 colon) of 1580 nM. For the same compound, the TGI (SW-620 colon) was 3060 nM, the GI50 (DU-145 prostate) was 1580 nM and the TGI (DU-145 prostate) was 2950 nM. The GI50 (OVCAR-3 ovarian) was 1320 nM and the TGI (OVCAR-3 ovarian) was 2650 nM.
